Reference: US20090028820A1, “Antiviral Agent” (MITSUBISHI TANABE PHARMA CORPORATION, priority 2005, published 2009)

Assays:
[1] = test system: Hepatitis C virus; conditions: cited from earlier work
[2] = test system: HCV-subgenomic replicon; conditions: Huh7 cells; cited from earlier work
[3] = test system: HCV-replicon; assay: Inhibition of HCV-replicon replication in HCV-replicon cells (quantitative PCR of replicon RNA); assay type: cell-based, Hepatitis C virus; conditions: for inhibition of replication of the HCV-replicon: HGF alone, clone #5-15, 48 hours
Protocol: As a cell system for in vitro replication of HCV, an HCV-replicon cell clone #5-15 derived from the human liver cancer cell strain Huh7 was used (purchased from ReBLikon GmbH). The clone #5-15 was suspended in the Dulbecco's Eagle's MEM medium containing 2% fetal bovine serum, and seeded on a 96-well plate at 1.5×10^4 cells/100 μl/well. As blank, wells added with the medium alone was prepared without seeding the cells (Day 0). After culture overnight in a humid incubator at 37° C. under 5% CO2 gas, 50 μl each of human recombinant IFNα (BIOMEDICAL LABORATORIES, Cat. No. 11105-1, lot No. #2122) and/or human recombinant HGF (produced in-house, Lot No. 920629) was added to each well. The final concentrations of IFNα were 0, 0.1 and 0.3 international unit (IU)/ml, the final concentrations of HGF were 0, 10 and 100 ng/ml, and the final volume was adjusted to 200 μl for all the wells. Three wells (triplicate) were prepared for each sample (Day 1). After culture for 48 hours, total RNA was extracted from each well by using ABI-PRIZM 6100 Nucleic Acid PrepStation (Applied Biosystems). Extraction was performed according to the operation manual of the apparatus. The solution of the extracted RNA was stored at −80° C. (Day 3). The samples were thawed on the next day, and amounts of the HCV-replicon RNA were quantified by quantitative polymerase chain reaction (PCR). The quantification was performed according to the method of Takeuchi et al. (Takeuchi, T. et al., Gastroenterology, Vol. 116, 636-642 (1999)) by using ABI PRISM 7900 (Applied Biosystems).
RNAs used in the quantitative PCR for a standard curve were prepared by in vitro transcription using a vector obtained by ligating the gene of the HCV MKC-1A strain (Genbank accession No. D45172) to the downstream of the T7 promoter using T7 RiboMAX Express Large Scale RNA Production System (Promega), and it was confirmed that linearity was obtainable between 10^2 and 10^8 in the aforementioned quantitative PCR.

[4] = test system: HCV-replicon cell clone #5-15 derived from Huh7; assay: Growth of HCV-replicon cell strain (Cell Titer 96 Aqueous One Solution Cell Proliferation Assay, absorbance 490 nm); assay type: cell-based, human; conditions: HGF 0, 10, 100 ng/ml; IFNα 0, 0.1, 0.3 IU/ml; 48 hours
Protocol: To determine whether or not the decreases in the replication of HCV-replicons observed in Example 1 were attributable to the decrease in the cell count itself, the following experiment was performed.
The clone #5-15 was suspended in Dulbecco's Eagle's MEM medium containing 2% fetal bovine serum, and seeded on a 96-well plate at 1.5×10^4 cells/100 μl/well. As blank, wells added with a medium alone was prepared without seeding cells (Day 0). After culture overnight in a humid incubator at 37° C. under 5% CO2 gas, 50 μl each of human recombinant IFNα (BIOMEDICAL LABORATORIES, Cat. No. 11105-1, lot No. #2122) and/or human recombinant HGF (produced in-house, Lot No. 920629) was added to each well. The final concentrations of IFNα were 0, 0.1 and 0.3 international unit (IU)/ml, the final concentrations of HGF were 0, 10 and 100 ng/ml, and the final volume was adjusted to 200 μl for all the wells. Three wells (triplicate) were prepared for each sample (Day 1). After culture for 48 hours, the number of cells was measured by Cell Titer 96 Aqueous One Solution Cell Proliferation Assay (Promega, Lot #171755), which is a type of cell growth assay kit. The measurement was performed according to the manual of the assay kit. […] Then, the plate was incubated for one hour in a humid incubator containing 5% CO2 set at 37° C., and then measured at absorbance 490 nm by using a 96-well plate reader.

COc1ccc2c(O[C@@H]3C[C@H]4C(=O)N[C@]5(C(=O)O)C[C@H]5/C=C\CCCCC[C@H](NC(=O)OC5CCCC5)C(=O)N4C3)cc(-c3csc(NC(C)C)n3)nc2c1 [BILN-2061]
improvement of viremia ([1]; patients with hepatitis C): confirmed to improve viremia | inhibition of replication of replicon RNA [2]: inhibits replication of replicon RNA

NC(=O)c1ncn([C@@H]2O[C@H](CO)[C@@H](O)[C@H]2O)n1 [Ribavirin, ribavirin]
efficacy against HCV ([1]; agent alone): ineffective

HGF: human recombinant HGF (produced in-house, Lot No. 920629); hepatocyte growth factor
effect of HGF on IFN-dependent inhibition of virus replication ([3]; HGF 10 ng/ml combined with IFN): synergistically enhanced | inhibition of replication of the HCV-replicon ([3]; 10 ng/ml): almost no inhibition of the replication was observed | inhibition of replication of the HCV-replicon ([3]; 100 ng/ml): inhibited the replication of the HCV-replicon | effect of HGF on inhibition of HCV-replicon replication by IFN ([3]; HGF combined with IFN 0.1 IU/ml): synergistically acted to inhibit the replication of HCV-replicons | effect of HGF on inhibition of HCV-replicon replication by IFN ([3]; HGF combined with IFN 0.3 IU/ml): effect of HGF was not observed | inhibition of growth of the HCV-replicon cell line [4]: not observed to inhibit the growth
